Experiment: Yellowing study by UV-Vis percentage transmission after UV exposure
Format: physicochemical
Settings: 1 wt. % in dichloromethane; percentage transmission across visible range; cured at 0, 100, 500, 1000 and 3000 mJ; FIG. 2
Text: UV-Vis spectroscopy was used to measure the compound yellowing by measuring the percentage transmission for each of the compounds across the visible range. This was done by dissolving 1 wt. % of each compound in a solvent, usually dichloromethane, and measuring the solutions percentage transmission on the Hitachi UV-Vis spectrometer, with air as a baseline. The solutions were then cured at a variety of different doses (0, 100, 500, 1000 and 3000 mJ) and the transmission measured again.
Anhydrous dichloromethane was used to dissolve the mixtures, as it remains unaffected when exposed to UV light. By comparing these percentage transmissions it could be concluded, which compound yellow and to what extent.

| change in yellowing when exposed to UV-light | SMILES |
| --- | --- |
| least amount of change in yellowing | C=CC(=O)OCCCCCCOc1ccc(C(=O)Oc2ccc(C#Cc3ccc(OC)cc3)cc2Cl)cc1 [A] |
| significant increase in yellowing | C=CC(=O)OCCCCCCOc1ccc(C(=O)Oc2ccc(C#Cc3ccc(OC)cc3)cc2C)cc1 [B] |
| least amount of change in yellowing | C=CC(=O)OCCCCCCOc1ccc(C(=O)Oc2ccc(C#Cc3ccc(OC)cc3)cc2F)cc1 [RM-1] |

— patent US20180148648A1, “REACTIVE MESOGENS” (Merck Patent GmbH, priority 2015, published 2018)
